In patent US10022453B2 (BAYER PHARMA AKTIENGESELLSCHAFT, priority 2013, dated 2018):

Legend:
NCI-H292 = experiment: Cytotoxic effects, MTT assay; type: cell-based; details: Homo sapiens, 72 h incubation
Method: The cells are cultivated by a standard method, as indicated in the […] (ATCC) for the respective cell lines.
At the end of the selected incubation time, the MTT reagent is incubated with the cells for 4 h, followed by lysis of the cells overnight by addition of the detergent. […] The proliferation of cells which were not treated with test substance but were otherwise identically treated was defined as the 100% figure.

[1] = molecular target: T1, human kinesin spindle protein KSP/Eg5 (Homo sapiens, UniProt P52732); experiment: Inhibition of the kinesin spindle protein KSP/Eg5 (ATPase, malachite green); type: biochemical; details: 10 nM KSP motor domain, 500 μM ATP, 2 h RT
T1 construct: The motor domain of the human kinesin spindle protein KSP/Eg5; purchased tebu-bio/Cytoskeleton Inc 027EG01-XL
T1 sequence (P52732 18-359 limits assumed): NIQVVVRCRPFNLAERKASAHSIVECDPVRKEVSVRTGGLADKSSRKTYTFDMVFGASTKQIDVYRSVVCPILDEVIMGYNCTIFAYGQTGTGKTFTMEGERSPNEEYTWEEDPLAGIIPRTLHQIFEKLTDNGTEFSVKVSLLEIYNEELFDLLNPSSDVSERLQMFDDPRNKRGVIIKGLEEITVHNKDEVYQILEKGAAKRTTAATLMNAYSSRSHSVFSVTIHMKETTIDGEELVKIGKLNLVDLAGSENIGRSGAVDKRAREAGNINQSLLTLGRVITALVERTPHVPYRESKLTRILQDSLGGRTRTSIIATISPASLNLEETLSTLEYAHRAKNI
Outline: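 KSP/Eg5 motor domain (10 nM) preincubated 5 min at RT with 50 μg/ml taxol-stabilized bovine or porcine microtubules in 15 mM PIPES pH 6.8, 5 mM MgCl2, 10 mM DTT. IC50 = mean of three experiments.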

SMILES	IC50 (NCI-H292) [nM]	IC50 [1] [nM]
CC(C)(C)[C@H](c1cc(-c2cc(F)ccc2F)cn1Cc1ccccc1)N(CCCN)C(=O)c1ccc(C(F)(F)F)cc1 [Example 189, N-(3-aminopropyl)-N-{(1R)-1-[1-benzyl-4-(2,5-difluorophenyl)-1H-pyrrol-2-yl]-2,2-dimethylpropyl}-4-(trifluoromethyl)benzamide]	8.76	11.2
CC(C)(C)[C@H](c1cc(-c2cc(F)ccc2F)cn1Cc1ccccc1)N(CCCN)C(=O)c1ccc(F)cc1F [Example 190]	5.42	9.61
CC(C)(C)[C@H](c1cc(-c2cc(F)ccc2F)cn1Cc1ccccc1)N(CC[C@H](N)C(=O)NCCC(=O)O)C(=O)CO [Example 200, N-{(2S)-2-Amino-4-[{(1R)-1-[1-benzyl-4-(2,5-difluorophenyl)-1H-pyrrol-2-yl]-2,2-dimethylpropyl}(glycoloyl)amino]butanoyl}-beta-alanine/trifluoroacetic acid (1:1)]	140	0.108
C[C@H](NC(=O)[C@@H](N)CCN(C(=O)CO)[C@@H](c1cc(-c2cc(F)ccc2F)cn1Cc1ccccc1)C(C)(C)C)C(=O)O [Example 202, N-{(2S)-2-Amino-4-{[(1R)-1-[1-benzyl-4-(2,5-difluorophenyl)-1H-pyrrol-2-yl]-2,2-dimethylpropyl}(glycoloyl)amino]butanoyl}-L-alanine/trifluoroacetic acid (1:1)]	422	0.256
Cc1ccc(C(=O)N(CCCN)[C@@H](c2cc(-c3cc(F)ccc3F)cn2Cc2ccccc2)C(C)(C)C)cc1 [Example 219, Trifluoroacetic acid/N-(3-aminopropyl)-N-{(1R)-1-[1-benzyl-4-(2,5-difluorophenyl)-1H-pyrrol-2-yl]-2,2-dimethylpropyl}-4-methylbenzamide (1:1)]	3.48	1.13
CSc1ccc(C(=O)N(CCCN)[C@@H](c2cc(-c3cc(F)ccc3F)cn2Cc2ccccc2)C(C)(C)C)cc1 [Example 220, Trifluoroacetic acid/N-(3-aminopropyl)-N-{(1R)-1-[1-benzyl-4-(2,5-difluorophenyl)-1H-pyrrol-2-yl]-2,2-dimethylpropyl}-4-(methylsulphanyl)benzamide (1:1)]	0.197	1.45
C[C@H](O)C(=O)N(CCCN)[C@@H](c1cc(-c2cc(F)ccc2F)cn1Cc1ccccc1)C(C)(C)C [Example 221, Trifluoroacetic acid/(2S)—N-(3-aminopropyl)-N-{(1R)-1-[1-benzyl-4-(2,5-difluorophenyl)-1H-pyrrol-2-yl]-2,2-dimethylpropyl}-2-hydroxypropanamide (1:1)]	0.1	0.112
CSCC(=O)N(CCCN)[C@@H](c1cc(-c2cc(F)ccc2F)cn1Cc1ccccc1)C(C)(C)C [Example 222, Trifluoroacetic acid/N-(3-aminopropyl)-N-{(1R)-1-[1-benzyl-4-(2,5-difluorophenyl)-1H-pyrrol-2-yl]-2,2-dimethylpropyl}-2-(methylsulphanyl)acetamide (1:1)]	3.3	1.58
C[C@H](O)C(=O)N(CCCN)[C@@H](c1nn(-c2cc(F)ccc2F)cc1Cc1ccccc1)C(C)(C)C [Example 223, Trifluoroacetic acid/(2S)—N-(3-aminopropyl)-N-{(1R)-1-[4-benzyl-1-(2,5-difluorophenyl)-1H-pyrazol-3-yl]-2,2-dimethylpropyl}-2-hydroxypropanamide (1:1)]	0.0077	0.289
COC(=O)CCC(=O)N(CCCN)[C@@H](c1cc(-c2cc(F)ccc2F)cn1Cc1ccccc1)C(C)(C)C [Example 224, Trifluoroacetic acid/methyl 4-[(3-aminopropyl){(1R)-1-[1-benzyl-4-(2,5-difluorophenyl)-1H-pyrrol-2-yl]-2,2-dimethylpropyl}amino]-4-oxobutanoate (1:1)]	0.00337	0.196
